Laboratory results as given in patent US7595345B2, “Vitamin D receptor modulators” (Eli Lilly and Company, priority 2003, dated 2009).

Legend:
rat osteocalcin promoter = assay: OCN (osteocalcin) promoter assay; format: cell-based; conditions: Rattus norvegicus, 48 h, RG-15 (ROS 17/2.8) cells, 48 hr treatment, luciferase
Protocol: 3. The OCN (Osteocalcin) Promoter Assay
The OCN Promoter Assay is an indicator and marker for osteoporosis. Desired assay results are EC50 less than or equal to […]. Preferred assay results are less than […].
(3) Materials and Method for the OCN Promoter Assay:
The activation of osteocalcin by VDR ligands was evaluated in a rat osteoblast-like cell line RG-15 (ROS 17/2.8) stably expressing rat osteocalcin promoter fused with luciferase reporter gene. The stable cell lines were established as reported before (Activation of Osteocalcin Transcription involves interaction of protein kinase A- and Protein kinase C-dependent pathways. Boguslawski, G., Hale, L. V., Yu, X.-P., Miles, R. R., Onyia, J. E., Santerre R. F., Chandrasekhar, S. J. Biol. Chem. 275, 999-1006, 2000). Confluent RG-15 cells maintained in DMEM/F-12 medium (3:1) containing 5% FBS, 300 µg/ml G418 and at 37° C. under 5% CO2/95% air atmosphere were trypsinized (0.25% trypsin) and plated into white opaque 96-well cell culture plates (25000 cells/well). After 24 hr, cells (in DMEM/F-12 medium+2% FBS) were treated with various concentrations of compounds, dissolved in DMSO. The final DMSO concentration remained at 0.01% (v/v). After 48 hr treatment, the medium was removed, cells were lysed with 50 µl of lysis buffer (From Luciferase reporter assay system, Roche Diagnostics, Indianapolis, Ind.) and assayed for luciferase activity using the Luciferase Reporter Gene Assay kit from Boehringer Mannheim as per manufacturer's specifications.

VDR (pGal4-VDR-LBD) = molecular target: T1, VDR (pGal4-VDR-LBD) (Homo sapiens, UniProt P11473); assay: VDR CTF (Caco-2 cell co-transfection assay); format: cell-based; conditions: Caco-2 cells, Gal4-responsive reporter pFRLuc; surrogate for calcemic activity
T1 construct: the receptor expression vector pGal4-VDR-LBD (10 ng); expressed in transfected cells; host or cells: Caco-2 cells
T1 sequence (P11473 127-423 limits assumed): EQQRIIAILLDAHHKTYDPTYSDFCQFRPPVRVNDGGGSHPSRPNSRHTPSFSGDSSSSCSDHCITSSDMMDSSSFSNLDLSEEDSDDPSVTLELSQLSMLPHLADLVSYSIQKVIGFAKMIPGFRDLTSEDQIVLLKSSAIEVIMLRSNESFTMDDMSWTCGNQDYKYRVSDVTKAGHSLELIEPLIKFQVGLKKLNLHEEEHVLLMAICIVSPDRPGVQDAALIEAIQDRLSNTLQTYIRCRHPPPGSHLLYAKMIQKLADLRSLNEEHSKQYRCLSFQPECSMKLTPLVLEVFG
Protocol: 2. The Caco-2 Cell Co-Transfection Assay:
The Caco-2 cell assay is an indicator for the undesirable condition of hypercalcemia. This co-transfection assay is a surrogate assay for in vivo calcemic activity of VDR ligands. […] Preferred assay results are greater than 1000 nM.
(2) Materials and Method for the Caco-2 Cell Assay:
Caco-2 cells, grown in phenol red free, DMEM (Invitrogen, Carlsbad, Calif.) containing 10% charcoal-stripped FCS (Hyclone, Logan, Utah), were transfected with Fugene 6 reagent (Roche Diagnostics, Indianapolis, Ind.). Cells (5000/well) were plated 18 h before transfection in a 96 well plate. The Cells were transfected with Gal4-responsive reporter pFRLuc (150 ng, Stratagene, La Jolla Calif.) and the receptor expression vector pGal4-VDR-LBD (10 ng), along with Fugene 6 reagent (0.2 μl/well). The DNA-Fugene complex was formed by incubating the mixture for 30 min at room temperature. The cells were transfected in triplicate for 5 h, and treated with various concentrations of VDR ligands (form 0.01 nM to 10,000 nM concentration range) 18 h post-transfection. The luciferase activity was quantified using Steady-Glo reagent kit (Promega, Madison, Wis.) as per manufacturer's specifications.

[1] = Mouse hypercalcemia assay; format: in vivo; conditions: female DBF mice, oral gavage for 6 days, serum ionized calcium 6 hours after last dosing
From the text: 4. The Mouse Hypercalcemia Assay
(4) Materials and Method for the Mouse Hypercalcemia Assay: […]

[2] = molecular target: T2, RXR-VDR heterodimer (Gal4-RXR-DEF and VP16-VDR-LBD) (Homo sapiens, UniProt P11473); assay: RXR-VDR heterodimerization assay (SaOS-2 cells); format: cell-based; conditions: luciferase reporter pFR-LUC
T2 construct: Add the Gal4-RXR-DEF and VP16-VDR-LBD; expressed in transfected cells; host or cells: SaOs-2 cells
T2 sequence (P11473 127-423 limits assumed): T1 sequence (P11473 127-423 limits assumed)
T2 sequence (P19793 201-462 partner limits assumed): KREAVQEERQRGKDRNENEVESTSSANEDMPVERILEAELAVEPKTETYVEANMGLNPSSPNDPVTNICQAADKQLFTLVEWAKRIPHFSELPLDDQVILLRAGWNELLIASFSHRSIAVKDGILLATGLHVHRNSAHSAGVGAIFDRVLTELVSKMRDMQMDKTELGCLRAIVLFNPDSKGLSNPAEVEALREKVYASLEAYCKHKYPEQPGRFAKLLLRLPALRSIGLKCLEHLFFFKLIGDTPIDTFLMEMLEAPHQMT
From the text: 1. The RXR-VDR Heterodimer Assay:
This assay provides the VDR activity of a test compound.
This is an in vitro efficacy assay for psoriasis, abscess and adhesion. Psoriasis involves both keratinocytes and immune cells. IL-10 is a unique cytokine because it is anti-inflammatory and immunosuppressive. This assay tells us whether a VDRM is able to function as an agonist in PBMCs (primary blood mononuclear cells) or not. […] 7. Other Compound Assay Standards An alternative measure of the efficacy of compounds of the invention for treatment of osteoporosis is a numerical ratio calculated as follows: • Dose Threshold needed to induce hypercalcemia • divided by • Dose Threshold needed for bone efficacy An alternative measure of the efficacy of compounds of the invention for treatment of psoriasis is a numerical ratio calculated as follows: • Dose Threshold needed to induce hypercalcemia • divided by • Dose Threshold needed to induce keratinocyte proliferation For the above ratios, Dose Thresholds are determined from dose response curve data. 8. The CaT1 (Calcium Transport Protein 1) Assay The CaT1 Assay is an indicator for the undesirable condition of hypercalcemia. […] Preferred assay results are greater than 1000 nM. Details of the Assay Methods: (1) Materials and Method for RXR-VDR Heterodimerization Assay: Transfection Method:
Grow SaOs-2 cells in T-152 cm^2 culture flasks in growth media.
Keep the density at 5-6×10^5 cells/ml
Passage cells 1:3 twice a week
Resuspend cells in plating media and transfer into growth media.
Transfection/Treatment Media:
D-MEM Low Glucose Without Phenol Red only
T-152 cm^2 culture flask:
Use well plate to plate cells
Use Deep well plate sterile to make up treatment media.
Luciferase Assay Reagent:
Use Steady-Glo Luciferase Reagent from Promega (Cat #E2550) Consists of:
a. E2533 Assay Substrate, lyophilized product and
Aspirate media from culture flask, rinse cells with HBSS and aspirate.
Add trypsin and incubate. […]
Read the plates after drug treatment […]
Count each well using a Luminescence counter, Top Count NXT by Packard […]

EC50 (rat osteocalcin promoter): 0.96 nM
EC50 (VDR (pGal4-VDR-LBD)): 471 nM
Mouse Hypercal [1]: 3000 µg/kg/day
EC50 [2]: 68.6 nM
Compound: CCC(CC)(c1ccc(C#CC2(O)CCCC2)c(C)c1)c1ccc(C(=O)NC(C)(C)C(=O)O)c(C)c1 [Ex. 1, 2-(4-{1-Ethyl-1-[4-(1-hydroxy-cyclopentylethynyl)-3-methyl-phenyl]-propyl}-2-methyl-benzoylamino)-2-methyl-propionic acid]
